The results in this text go back to patent US20230139171A1 (SITA Information Networking Computing UK Limited, priority 2019, published 2023).

The term IC50 denotes the concentration at which inhibition is half-maximal.

Holding throughout (type): cell-based
One experiment has as its target T1, human TLR7 (Homo sapiens, UniProt Q9NYK1).
T1 construct: host or cells: HEK-Blue cells
T1 sequence (Q9NYK1 27-1049): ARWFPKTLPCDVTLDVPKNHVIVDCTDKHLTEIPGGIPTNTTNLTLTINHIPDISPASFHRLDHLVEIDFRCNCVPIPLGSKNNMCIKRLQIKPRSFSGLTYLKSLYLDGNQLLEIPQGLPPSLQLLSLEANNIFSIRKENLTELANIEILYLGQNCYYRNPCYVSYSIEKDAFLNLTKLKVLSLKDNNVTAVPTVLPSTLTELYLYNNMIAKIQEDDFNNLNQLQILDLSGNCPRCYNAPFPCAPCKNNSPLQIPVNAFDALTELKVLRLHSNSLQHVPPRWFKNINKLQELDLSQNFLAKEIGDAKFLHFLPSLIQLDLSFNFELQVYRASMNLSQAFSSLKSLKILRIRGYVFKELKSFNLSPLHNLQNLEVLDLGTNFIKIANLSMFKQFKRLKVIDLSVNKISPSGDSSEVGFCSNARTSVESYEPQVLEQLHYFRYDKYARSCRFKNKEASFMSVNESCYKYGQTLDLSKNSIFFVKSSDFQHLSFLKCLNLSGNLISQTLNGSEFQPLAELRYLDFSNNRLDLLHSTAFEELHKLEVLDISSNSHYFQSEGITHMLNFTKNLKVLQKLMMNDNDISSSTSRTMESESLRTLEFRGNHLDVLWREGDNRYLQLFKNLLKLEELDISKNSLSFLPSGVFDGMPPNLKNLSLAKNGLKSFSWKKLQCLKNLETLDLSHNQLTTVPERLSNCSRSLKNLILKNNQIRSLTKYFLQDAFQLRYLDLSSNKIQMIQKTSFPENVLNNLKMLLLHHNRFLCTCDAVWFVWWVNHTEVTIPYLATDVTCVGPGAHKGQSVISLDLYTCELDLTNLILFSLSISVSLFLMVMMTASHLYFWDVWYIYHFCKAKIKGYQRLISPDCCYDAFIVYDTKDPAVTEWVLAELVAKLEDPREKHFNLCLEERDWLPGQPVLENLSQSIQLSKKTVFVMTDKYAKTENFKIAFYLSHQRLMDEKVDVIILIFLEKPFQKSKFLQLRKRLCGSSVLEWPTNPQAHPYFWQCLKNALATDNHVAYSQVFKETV
The experiment in a line: TLR7 inhibition reporter assay (HEK-Blue cells, SEAP reporter, gardiquimod stimulation). The settings on record: HEK-Blue cells overexpressing human TLR7, SEAP reporter, gardiquimod 7.5 μM; read-out: TLR7 IC50. The essentials: (§1)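 Dose–response from 0.05 nM to 50 μM was run in HEK-Blue human TLR7, TLR8 and TLR9 reporter cells. After 30 min at room temperature with compound, ligand was added (TLR7 gardiquimod 7.5 μM; TLR8 R848 15.9 μM; TLR9 ODN2006 5 nM) and SEAP measured next day, at 22 h.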

The next experiment concerns the target T2, human TLR8 (Homo sapiens, UniProt Q9NR97).
T2 construct: host or cells: HEK-Blue cells
T2 sequence (Q9NR97 27-1041): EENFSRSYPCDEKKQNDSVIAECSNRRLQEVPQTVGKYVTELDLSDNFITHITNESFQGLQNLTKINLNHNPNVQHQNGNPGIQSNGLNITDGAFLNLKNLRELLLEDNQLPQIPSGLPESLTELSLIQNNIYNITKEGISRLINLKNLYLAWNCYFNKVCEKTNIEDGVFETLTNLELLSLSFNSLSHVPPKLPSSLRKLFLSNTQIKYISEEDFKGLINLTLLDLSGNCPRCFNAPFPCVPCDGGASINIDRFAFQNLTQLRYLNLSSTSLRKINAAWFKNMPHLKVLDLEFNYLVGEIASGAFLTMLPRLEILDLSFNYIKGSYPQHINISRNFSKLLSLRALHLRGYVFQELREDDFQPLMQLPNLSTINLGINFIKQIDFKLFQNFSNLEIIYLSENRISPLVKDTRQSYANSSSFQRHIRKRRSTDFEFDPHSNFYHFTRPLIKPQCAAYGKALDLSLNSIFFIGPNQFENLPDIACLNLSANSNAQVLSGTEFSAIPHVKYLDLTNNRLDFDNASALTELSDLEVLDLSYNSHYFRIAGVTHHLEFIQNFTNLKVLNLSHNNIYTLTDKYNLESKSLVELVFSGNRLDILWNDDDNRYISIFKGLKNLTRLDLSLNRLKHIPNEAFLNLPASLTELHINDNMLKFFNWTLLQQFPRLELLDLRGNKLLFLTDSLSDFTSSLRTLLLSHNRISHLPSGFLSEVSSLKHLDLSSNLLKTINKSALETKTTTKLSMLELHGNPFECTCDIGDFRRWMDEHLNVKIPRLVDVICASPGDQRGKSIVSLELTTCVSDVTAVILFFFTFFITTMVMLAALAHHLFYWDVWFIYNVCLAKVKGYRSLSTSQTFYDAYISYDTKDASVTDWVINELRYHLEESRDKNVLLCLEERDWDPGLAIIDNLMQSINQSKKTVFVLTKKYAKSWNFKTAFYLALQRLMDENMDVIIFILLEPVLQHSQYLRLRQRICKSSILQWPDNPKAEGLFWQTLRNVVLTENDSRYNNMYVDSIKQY
The experiment in a line: TLR8 inhibition reporter assay (HEK-Blue cells, SEAP reporter, R848 stimulation). The settings on record: HEK-Blue cells overexpressing human TLR8, SEAP reporter, R848 15.9 μM; read-out: TLR8 IC50. In short, it runs like this: as §1
A general note: In a reporter assay the amount or activity of a reporter protein is the signal.

A further experiment has as its target T3, human TLR9 (Homo sapiens, UniProt Q9NR96).
T3 construct: host or cells: HEK-Blue cells
T3 sequence (Q9NR96 26-1032): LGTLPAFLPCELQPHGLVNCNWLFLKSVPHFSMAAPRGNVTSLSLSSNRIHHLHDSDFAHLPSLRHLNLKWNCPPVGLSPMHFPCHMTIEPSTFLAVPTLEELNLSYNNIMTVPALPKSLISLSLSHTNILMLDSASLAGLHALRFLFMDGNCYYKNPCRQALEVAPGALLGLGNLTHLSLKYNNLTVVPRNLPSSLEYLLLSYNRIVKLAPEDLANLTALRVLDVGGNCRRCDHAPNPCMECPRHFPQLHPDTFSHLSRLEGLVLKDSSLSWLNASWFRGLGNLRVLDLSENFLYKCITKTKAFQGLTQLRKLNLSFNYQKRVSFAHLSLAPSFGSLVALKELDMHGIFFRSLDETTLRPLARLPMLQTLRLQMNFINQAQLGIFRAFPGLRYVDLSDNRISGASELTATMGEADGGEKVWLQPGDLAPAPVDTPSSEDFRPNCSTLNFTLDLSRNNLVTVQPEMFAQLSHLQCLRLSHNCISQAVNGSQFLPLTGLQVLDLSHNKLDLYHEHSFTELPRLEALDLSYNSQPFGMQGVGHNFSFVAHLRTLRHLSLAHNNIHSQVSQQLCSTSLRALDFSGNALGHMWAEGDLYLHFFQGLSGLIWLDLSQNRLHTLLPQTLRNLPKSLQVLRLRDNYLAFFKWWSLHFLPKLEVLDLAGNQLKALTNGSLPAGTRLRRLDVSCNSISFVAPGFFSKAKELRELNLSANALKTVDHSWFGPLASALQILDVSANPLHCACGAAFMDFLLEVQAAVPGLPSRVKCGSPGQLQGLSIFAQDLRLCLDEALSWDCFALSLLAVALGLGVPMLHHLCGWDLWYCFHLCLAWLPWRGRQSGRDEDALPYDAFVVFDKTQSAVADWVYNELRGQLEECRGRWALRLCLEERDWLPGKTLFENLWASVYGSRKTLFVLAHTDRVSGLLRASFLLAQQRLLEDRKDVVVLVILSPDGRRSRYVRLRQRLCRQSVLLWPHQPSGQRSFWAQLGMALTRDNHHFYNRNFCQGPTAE
The experiment in a line: TLR9 inhibition reporter assay (HEK-Blue cells, SEAP reporter, ODN2006 stimulation). The conditions noted are these: HEK-Blue cells overexpressing human TLR9, SEAP reporter, ODN2006 5 nM. In short, it runs like this: as §1

In the case of `Cc1c(-c2[nH]c3sc(C4CCN(S(C)(=O)=O)CC4)nc3c2C(C)C)cn2ncnc2c1C` [Example 45, 5-(7,8-dimethyl-[1,2,4]triazolo[1,5-a]pyridin-6-yl)-6-isopropyl-2-(1-(methylsulfonyl)piperidin-4-yl)-4H-pyrrolo[3,2-d]thiazole], the IC50 on human TLR7 was determined as 1.84 nM; at human TLR8 it was 19.5 nM; at human TLR9, 45400 nM.
The matching figures for `Cc1c(-c2[nH]c3sc(C4CCN(C5CCOCC5)CC4)nc3c2C(C)C)cn2ncnc2c1C` [Example 46, 5-(7,8-dimethyl-[1,2,4]triazolo[1,5-a]pyridin-6-yl)-6-isopropyl-2-(1-(tetrahydro-2H-pyran-4-yl)piperidin-4-yl)-4H-pyrrolo[3,2-d]thiazole]: 0.57 nM, 0.11 nM and 2500 nM.
As to `Cc1c(-c2[nH]c3sc(C4CCN(CC5(C)COC5)CC4)nc3c2C(C)C)cn2ncnc2c1C` [Example 47, 5-(7,8-dimethyl-[1,2,4]triazolo[1,5-a]pyridin-6-yl)-6-isopropyl-2-(1-((3-methyloxetan-3-yl)methyl)piperidin-4-yl)-4H-pyrrolo[3,2-d]thiazole], the IC50 worked out at 2.92 nM at human TLR7, 0.56 nM at human TLR8 and 6840 nM at human TLR9.
`Cc1c(-c2[nH]c3sc(C4CCN(CC5CCOCC5)CC4)nc3c2C(C)C)cn2ncnc2c1C` [Example 48, 5-(7,8-dimethyl-[1,2,4]triazolo[1,5-a]pyridin-6-yl)-6-isopropyl-2-(1-((tetrahydro-2H-pyran-4-yl)methyl)piperidin-4-yl)-4H-pyrrolo[3,2-d]thiazole]: the 50% inhibitory concentration (IC50) was 6.02 nM on human TLR7, 4.32 nM at human TLR8 and 19500 nM on human TLR9.
The matching figures for `Cc1c(-c2[nH]c3sc(C4CCN(C)CC4)nc3c2C(C)C)cn2ncnc2c1C` [Example 49, 5-(7,8-dimethyl-[1,2,4]triazolo[1,5-a]pyridin-6-yl)-6-isopropyl-2-(1-methylpiperidin-4-yl)-4H-pyrrolo[3,2-d] thiazole]: 0.97 nM, 0.48 nM and 9220 nM.
With `CCN1CCC(c2nc3c(C(C)C)c(-c4cn5ncnc5c(C)c4C)[nH]c3s2)CC1` [Example 50, 5-(7,8-dimethyl-[1,2,4]triazolo[1,5-a]pyridin-6-yl)-2-(1-ethylpiperidin-4-yl)-6-isopropyl-4H-pyrrolo[3,2-d]thiazole], the IC50 on human TLR7 came out at 1.27 nM; at human TLR8, 2.74 nM; against human TLR9 it was 17300 nM.
Consider `CCCN1CCC(c2nc3c(C(C)C)c(-c4cn5ncnc5c(C)c4C)[nH]c3s2)CC1` [Example 51, 5-(7,8-dimethyl-[1,2,4]triazolo[1,5-a]pyridin-6-yl)-6-isopropyl-2-(1-propylpiperidin-4-yl)-4H-pyrrolo[3,2-d]thiazole], for which the IC50 at human TLR7 is 1.59 nM; at human TLR8, 1.03 nM; against human TLR9 it was 8800 nM.
On to `Cc1c(-c2[nH]c3sc(C4CCN(CC(C)C)CC4)nc3c2C(C)C)cn2ncnc2c1C` [Example 52, 5-(7,8-dimethyl-[1,2,4]triazolo[1,5-a]pyridin-6-yl)-2-(1-isobutylpiperidin-4-yl)-6-isopropyl-4H-pyrrolo[3,2-d]thiazole], for which the IC50 on human TLR7 was found to be 2.9 nM; on human TLR8, 4.22 nM; against human TLR9, 18000 nM.
`Cc1c(-c2[nH]c3sc(C4CCN(CC5CC5)CC4)nc3c2C(C)C)cn2ncnc2c1C` [Example 53, 2-(1-(cyclopropylmethyl)piperidin-4-yl)-5-(7,8-dimethyl-[1,2,4]triazolo[1,5-a]pyridin-6-yl)-6-isopropyl-4H-pyrrolo[3,2-d]thiazole]: the IC50 came out at 0.94 nM on human TLR7, 0.79 nM at human TLR8 and 5070 nM against human TLR9.
As to `CCC(CC)CN1CCC(c2nc3c(C(C)C)c(-c4cn5ncnc5c(C)c4C)[nH]c3s2)CC1` [Example 54, 5-(7,8-dimethyl-[1,2,4]triazolo[1,5-a]pyridin-6-yl)-2-(1-(2-ethylbutyl)piperidin-4-yl)-6-isopropyl-4H-pyrrolo[3,2-d]thiazole], the half-maximal inhibitory concentration (IC50) at human TLR7 amounted to 1.1 nM; on human TLR8 it was 3.74 nM; against human TLR9, 6670 nM.
For `Cc1c(-c2[nH]c3sc(C4CCN(CC(=O)N(C)C)CC4)nc3c2C(C)C)cn2ncnc2c1C` [Example 57, 2-(4-(5-(7,8-dimethyl-[1,2,4]triazolo[1,5-a]pyridin-6-yl)-6-isopropyl-4H-pyrrolo[3,2-d]thiazol-2-yl)piperidin-1-yl)-N,N-dimethylacetamide] the same measures were 4.24 nM, 1.34 nM and 23100 nM.
For `Cc1c(-c2[nH]c3sc(C4CCN(CC(N)=O)CC4)nc3c2C(C)C)cn2ncnc2c1C` [Example 58, 2-(4-(5-(7,8-dimethyl-[1,2,4]triazolo[1,5-a]pyridin-6-yl)-6-isopropyl-4H-pyrrolo[3,2-d]thiazol-2-yl)piperidin-1-yl)acetamide] the same measures were 3.01 nM, 1.43 nM and 32800 nM.
